From patent publication US8513283B2, “Spiro substituted compounds as angiogenesis inhibitors” (Advenchen Laboratories, LLC, priority 2007, dated 2013)

Experiments:
[1] = tested on: human colon cancer HT29 xenograft; test: animal antitumor activity, HT29 xenograft; format: in vivo, mice; settings: FIG. 1
KDR(h) = KDR(h) (Homo sapiens, UniProt P35968); test: in vitro tyrosine kinase inhibition; format: biochemical
Flt4(h) = Flt4(h) (Homo sapiens, UniProt P35916); test: in vitro tyrosine kinase inhibition; format: biochemical
Excerpt: (§1) Several in vitro tyrosine kinase inhibition activities can be measured according to the description in Rewcastle, G W, J. Med. Chem. 1996, 39, 918-928 and Edwards M, International Biotechnology Lab 5 (3), 19-25, 1987. Oncogene, 1990, 5: 519-524. The Baculovirus Expression System: A Laboratory Guide, L. A. King 1992. Sambrook et al, 1989, Molecular cloning—A Laboratory Manual, 2nd edition, Cold Spring Harbour Laboratory Press. O'Reilly et al, 1992, Baculovirus Expression Vectors—A Laboratory Manual, W. H. Freeman and Co, New York.
(§2) Receptor tyrosine kinase can be obtained in partially purified form from A-431 cells similar to those described by Carpenter et al., J. Biol. Chem., 1979, 254, 4884, Cohen et al., J. Biol. Chem., 1982, 257, 1523 and by Braun et al., J. Biol. Chem., 1984, 259, 2051. Some of these tests can also be contracted with Millipore Upstate Ltd for screening.

PDGFRα(h) = PDGFRα(h) (Homo sapiens, UniProt P16234); test: in vitro tyrosine kinase inhibition; format: biochemical
Excerpt: as §1, §2

Flt1(h) = Flt1(h) (Homo sapiens, UniProt P17948); test: in vitro tyrosine kinase inhibition; format: biochemical
Excerpt: as §1, §2

cKit(h) = cKit(h) (Homo sapiens, UniProt P10721); test: in vitro tyrosine kinase inhibition; format: biochemical
Excerpt: as §1, §2

[2] = tested on: human liver cancer Bel-7402 xenograft; test: animal antitumor activity, Bel-7402 xenograft; format: in vivo, mice; settings: FIG. 2
c-RAF(h) = c-RAF(h) (Homo sapiens, UniProt P04049); test: in vitro kinase inhibition; format: biochemical
Excerpt: as §1, §2

Chain of Flt1(h) (P17948 27-1338): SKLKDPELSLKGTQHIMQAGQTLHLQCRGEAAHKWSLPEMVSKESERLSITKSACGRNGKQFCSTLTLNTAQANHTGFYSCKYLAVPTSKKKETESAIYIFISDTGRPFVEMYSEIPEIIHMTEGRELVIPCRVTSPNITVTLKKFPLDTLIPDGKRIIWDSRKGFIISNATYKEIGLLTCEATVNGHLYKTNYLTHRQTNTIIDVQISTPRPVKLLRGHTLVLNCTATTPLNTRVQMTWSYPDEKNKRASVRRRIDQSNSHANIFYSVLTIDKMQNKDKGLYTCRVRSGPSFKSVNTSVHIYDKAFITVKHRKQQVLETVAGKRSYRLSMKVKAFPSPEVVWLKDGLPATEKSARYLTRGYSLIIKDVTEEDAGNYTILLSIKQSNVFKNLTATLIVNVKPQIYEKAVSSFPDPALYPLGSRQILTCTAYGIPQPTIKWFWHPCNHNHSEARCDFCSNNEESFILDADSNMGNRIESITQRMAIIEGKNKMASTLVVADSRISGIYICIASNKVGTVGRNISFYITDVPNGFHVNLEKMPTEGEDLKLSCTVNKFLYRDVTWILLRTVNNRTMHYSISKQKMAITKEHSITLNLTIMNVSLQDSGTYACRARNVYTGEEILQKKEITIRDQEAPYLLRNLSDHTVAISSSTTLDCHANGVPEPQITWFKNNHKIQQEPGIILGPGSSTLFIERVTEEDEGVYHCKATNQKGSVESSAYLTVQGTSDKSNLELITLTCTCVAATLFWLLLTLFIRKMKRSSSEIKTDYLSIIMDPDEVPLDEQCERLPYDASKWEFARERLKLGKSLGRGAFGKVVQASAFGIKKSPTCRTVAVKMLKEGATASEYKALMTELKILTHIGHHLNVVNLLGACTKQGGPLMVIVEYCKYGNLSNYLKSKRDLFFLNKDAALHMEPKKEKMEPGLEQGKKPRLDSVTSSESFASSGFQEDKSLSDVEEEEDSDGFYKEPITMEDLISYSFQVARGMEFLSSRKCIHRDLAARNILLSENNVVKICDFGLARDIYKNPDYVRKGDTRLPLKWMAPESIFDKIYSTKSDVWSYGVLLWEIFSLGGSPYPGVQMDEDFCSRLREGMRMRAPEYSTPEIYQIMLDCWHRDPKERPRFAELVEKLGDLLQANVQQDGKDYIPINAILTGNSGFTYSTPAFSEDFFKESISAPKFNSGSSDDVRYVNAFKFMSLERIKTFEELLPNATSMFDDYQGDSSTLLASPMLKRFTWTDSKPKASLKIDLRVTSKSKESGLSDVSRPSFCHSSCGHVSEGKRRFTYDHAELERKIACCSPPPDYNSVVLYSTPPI
Chain of cKit(h) (P10721 26-976): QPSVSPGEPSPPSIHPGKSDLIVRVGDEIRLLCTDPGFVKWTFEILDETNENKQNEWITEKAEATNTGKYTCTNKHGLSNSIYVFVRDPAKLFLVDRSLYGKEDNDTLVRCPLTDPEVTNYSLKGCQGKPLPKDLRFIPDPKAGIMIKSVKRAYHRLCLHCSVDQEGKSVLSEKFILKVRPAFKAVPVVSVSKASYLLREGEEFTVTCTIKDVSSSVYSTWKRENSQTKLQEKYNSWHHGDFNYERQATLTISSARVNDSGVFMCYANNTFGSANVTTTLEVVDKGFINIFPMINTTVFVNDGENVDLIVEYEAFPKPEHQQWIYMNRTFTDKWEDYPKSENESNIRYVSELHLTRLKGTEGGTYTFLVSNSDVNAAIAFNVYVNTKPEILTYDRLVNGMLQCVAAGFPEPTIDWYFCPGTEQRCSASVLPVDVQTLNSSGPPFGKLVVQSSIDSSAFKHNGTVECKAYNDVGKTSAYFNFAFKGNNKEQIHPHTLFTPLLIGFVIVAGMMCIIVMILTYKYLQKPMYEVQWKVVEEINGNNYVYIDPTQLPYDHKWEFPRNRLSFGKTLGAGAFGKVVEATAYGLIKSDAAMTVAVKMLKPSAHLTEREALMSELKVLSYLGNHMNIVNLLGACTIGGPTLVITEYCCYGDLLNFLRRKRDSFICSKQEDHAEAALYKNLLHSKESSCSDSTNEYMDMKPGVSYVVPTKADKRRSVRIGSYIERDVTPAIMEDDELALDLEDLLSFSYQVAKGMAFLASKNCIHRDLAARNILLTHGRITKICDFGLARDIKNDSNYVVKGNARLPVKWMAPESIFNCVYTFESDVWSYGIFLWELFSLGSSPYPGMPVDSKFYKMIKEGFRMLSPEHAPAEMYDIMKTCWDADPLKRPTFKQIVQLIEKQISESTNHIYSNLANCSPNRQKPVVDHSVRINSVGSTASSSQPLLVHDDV
Chain of Flt4(h) (P35916 25-1363): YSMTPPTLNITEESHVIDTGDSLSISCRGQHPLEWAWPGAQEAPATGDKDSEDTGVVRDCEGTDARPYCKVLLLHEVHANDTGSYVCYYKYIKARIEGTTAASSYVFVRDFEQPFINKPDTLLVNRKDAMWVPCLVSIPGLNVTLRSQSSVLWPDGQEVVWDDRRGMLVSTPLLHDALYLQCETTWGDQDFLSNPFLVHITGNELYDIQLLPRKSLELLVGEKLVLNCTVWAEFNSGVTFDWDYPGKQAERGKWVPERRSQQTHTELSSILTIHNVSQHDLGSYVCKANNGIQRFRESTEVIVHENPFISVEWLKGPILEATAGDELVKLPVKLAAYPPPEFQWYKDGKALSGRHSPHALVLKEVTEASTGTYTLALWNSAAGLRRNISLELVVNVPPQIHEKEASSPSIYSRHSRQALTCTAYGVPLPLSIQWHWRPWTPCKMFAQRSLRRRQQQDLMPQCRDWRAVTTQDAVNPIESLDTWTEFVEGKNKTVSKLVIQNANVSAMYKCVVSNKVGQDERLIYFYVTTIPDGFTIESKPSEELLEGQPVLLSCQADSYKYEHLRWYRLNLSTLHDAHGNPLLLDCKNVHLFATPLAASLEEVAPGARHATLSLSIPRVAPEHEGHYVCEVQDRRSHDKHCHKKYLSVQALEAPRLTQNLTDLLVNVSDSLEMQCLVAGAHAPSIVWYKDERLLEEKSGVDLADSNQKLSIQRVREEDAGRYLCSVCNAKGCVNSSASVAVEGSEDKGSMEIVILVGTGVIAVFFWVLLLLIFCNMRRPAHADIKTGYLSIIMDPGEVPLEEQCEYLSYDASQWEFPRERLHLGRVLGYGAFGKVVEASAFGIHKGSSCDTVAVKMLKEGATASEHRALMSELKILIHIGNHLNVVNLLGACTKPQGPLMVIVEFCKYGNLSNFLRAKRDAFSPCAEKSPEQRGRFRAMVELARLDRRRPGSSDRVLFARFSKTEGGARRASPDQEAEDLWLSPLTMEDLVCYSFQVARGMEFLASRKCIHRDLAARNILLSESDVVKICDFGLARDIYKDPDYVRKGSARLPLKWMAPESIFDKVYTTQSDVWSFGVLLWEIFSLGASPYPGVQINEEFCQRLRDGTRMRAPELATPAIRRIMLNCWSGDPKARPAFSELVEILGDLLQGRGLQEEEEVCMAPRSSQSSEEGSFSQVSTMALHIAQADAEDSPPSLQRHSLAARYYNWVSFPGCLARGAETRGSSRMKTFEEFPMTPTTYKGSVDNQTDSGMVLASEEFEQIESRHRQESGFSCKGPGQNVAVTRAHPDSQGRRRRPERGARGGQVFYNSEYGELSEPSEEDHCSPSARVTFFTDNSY
Chain of PDGFRα(h) (P16234 24-1089): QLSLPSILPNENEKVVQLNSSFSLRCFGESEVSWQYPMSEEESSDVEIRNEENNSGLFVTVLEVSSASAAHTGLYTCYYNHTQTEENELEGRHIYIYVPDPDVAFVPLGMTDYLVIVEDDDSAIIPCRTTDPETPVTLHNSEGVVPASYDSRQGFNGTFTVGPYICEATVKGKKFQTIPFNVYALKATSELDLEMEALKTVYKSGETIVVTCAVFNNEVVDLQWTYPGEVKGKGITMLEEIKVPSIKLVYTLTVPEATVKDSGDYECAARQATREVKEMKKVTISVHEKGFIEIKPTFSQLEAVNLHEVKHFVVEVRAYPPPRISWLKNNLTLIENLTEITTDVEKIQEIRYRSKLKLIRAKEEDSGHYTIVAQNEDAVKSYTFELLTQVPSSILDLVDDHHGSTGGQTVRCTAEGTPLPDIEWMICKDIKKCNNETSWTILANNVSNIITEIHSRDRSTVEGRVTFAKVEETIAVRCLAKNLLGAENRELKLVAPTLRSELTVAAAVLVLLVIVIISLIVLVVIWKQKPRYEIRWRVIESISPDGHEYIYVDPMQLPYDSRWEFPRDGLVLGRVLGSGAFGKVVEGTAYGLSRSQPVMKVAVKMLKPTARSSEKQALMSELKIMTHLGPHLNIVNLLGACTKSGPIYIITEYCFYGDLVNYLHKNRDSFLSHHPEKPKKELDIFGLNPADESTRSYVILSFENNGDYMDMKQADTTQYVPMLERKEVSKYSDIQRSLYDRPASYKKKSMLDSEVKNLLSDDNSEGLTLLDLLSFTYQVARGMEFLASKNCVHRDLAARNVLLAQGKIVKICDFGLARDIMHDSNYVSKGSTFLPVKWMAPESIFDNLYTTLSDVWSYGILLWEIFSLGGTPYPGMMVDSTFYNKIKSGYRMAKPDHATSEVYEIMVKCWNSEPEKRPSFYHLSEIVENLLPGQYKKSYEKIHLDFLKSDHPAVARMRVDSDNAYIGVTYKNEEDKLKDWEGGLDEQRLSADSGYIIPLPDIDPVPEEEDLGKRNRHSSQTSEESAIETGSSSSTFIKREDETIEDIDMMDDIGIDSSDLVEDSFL

IC50 (KDR(h)): 15 nM
IC50 (Flt4(h)): 2 nM
IC50 (PDGFRα(h)): 219 nM
IC50 (Flt1(h)): 4 nM
IC50 (cKit(h)): 234 nM
IC50 (c-RAF(h)): 293 nM
Structure (SMILES): CNC(=O)c1cccc2cc(Oc3ccnc4cc(OCC5(N)CC5)c(OC)cc34)ccc12 [AL3810]
efficacy on animal model compared with SU11248 [1]: better efficacy than SU11248
efficacy on animal model compared with Nexavar [2]: better efficacy
